Measurements taken from publication PMC10178204, “Peptaibol Analogs Show Potent Antibacterial Activity against Multidrug Resistant Opportunistic Pathogens” (International Journal of Molecular Sciences, 2023).
In brackets after ≈: the same amount, converted by molar mass. Several values for one entry are separate records, joined by “and”; a condition that tells them apart may be missing. Equal entries are not always repeated. Non-standard residues stand in square brackets, D forms with d. Residues, ends and D or L forms follow the SMILES beside them. *: point of attachment. Octanoyl = CCCCCCCC(=O)*; Aib = CC(C)(N)C(=O)O

Tests used:
[1] = tested on: Acinetobacter baumannii ATCC 17978; settings: for MBC Aba / MIC Aba: MHB, 5 × 10^5 CFU/mL, 18 h, 35 °C, triplicate; for MIC against A. baumannii, in molar units: corresponding to 2 and 8 μg/mL
Procedure, shortened: (§1)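 Broth microdilution in Mueller–Hinton broth, run in triplicate, inoculum 5 × 10^5 CFU/mL per CLSI M07-A10; MIC and MBC both determined. Peptides dissolved in DMSO at 25 mg/mL as stock.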

[2] = tested on: Bacillus subtilis ATCC 6633; settings: MHB, 5 × 10^5 CFU/mL, 18 h, 35 °C, triplicate
Procedure, shortened: as §1

[3] = tested on: Enterococcus faecalis ATCC 29212; settings: MHB, 5 × 10^5 CFU/mL, 18 h, 35 °C, triplicate
Procedure, shortened: as §1

[4] = tested on: Escherichia coli CCUGT; settings: MHB, 5 × 10^5 CFU/mL, 18 h, 35 °C, triplicate
Procedure, shortened: as §1

[5] = tested on: Klebsiella pneumoniae ATCC 13833; settings: MHB, 5 × 10^5 CFU/mL, 18 h, 35 °C, triplicate
Procedure, shortened: as §1

[6] = tested on: Staphylococcus aureus ATCC 25923; settings: MHB, 5 × 10^5 CFU/mL, 18 h, 35 °C, triplicate
Procedure, shortened: as §1

[7] = tested on: Streptococcus pyogenes ATCC 12344; settings: MHB, 5 × 10^5 CFU/mL, 18 h, 35 °C, triplicate
Procedure, shortened: as §1

[8] = tested on: reference Gram-positive and Gram-negative strains
Procedure, shortened: as §1

[9] = tested on: A. baumannii SI-12 (OXA-23); settings: MHB, 5 × 10^5 CFU/mL, 18 h, 35 °C, triplicate
Procedure: (§2) The minimum inhibitory concentration (MIC) and the minimum bactericidal concentration (MBC) of the compounds were determined in triplicate using Mueller–Hinton broth (MHB). […] Therefore, we decided to dissolve all peptides in DMSO to a final concentration of 25 mg/mL, for consistency. The bacteria inoculum was 5 × 10^5 CFU/mL, as recommended by CLSI (Document M07-A10, 2015). […] Reference-type strains, including representatives of both Gram-positive bacteria (Bacillus subtilis ATCC 6633, Enterococcus faecalis ATCC 29212, Staphylococcus aureus ATCC 25923, the methicillin-resistant Staphylococcus aureus ATCC 43300 (MRSA), Streptococcus pyogenes ATCC 12344) and Gram-negative bacteria (Escherichia coli CCUGT, Klebsiella pneumoniae ATCC 13833, Pseudomonas aeruginosa ATCC 27853, and Acinetobacter baumannii ATCC 17978), were acquired from ATCC or CCUG culture collections. Other antibiotic-resistant clinical isolates were present in our collection at the University Teaching Hospital (Azienda Ospedaliero-Universitaria Senese ‘Santa Maria alle Scotte’) in Siena, Tuscany, Italy. Specifically, MDR carbapenem-hydrolyzing class D β-lactamase-producing Acinetobacter baumannii and metallo-β-lactamase-producing Pseudomonas aeruginosa were used in this study (Table 4).

[10] = tested on: A. baumannii SI-310 (OXA-24); settings: colistin-resistant isolate; MHB, 5 × 10^5 CFU/mL, 18 h, 35 °C, triplicate
Procedure: as §2

[11] = tested on: A. baumannii SI-648 (OXA-23, OXA-51-like); settings: MHB, 5 × 10^5 CFU/mL, 18 h, 35 °C, triplicate
Procedure: as §2

[12] = tested on: P. aeruginosa 101/1477 (IMP-1); settings: MHB, 5 × 10^5 CFU/mL, 18 h, 35 °C, triplicate
Procedure: as §2

[13] = tested on: P. aeruginosa 506/99 (VIM-2); settings: MHB, 5 × 10^5 CFU/mL, 18 h, 35 °C, triplicate
Procedure: as §2

[14] = tested on: P. aeruginosa VA-182/00 (VIM-2); settings: MHB, 5 × 10^5 CFU/mL, 18 h, 35 °C, triplicate
Procedure: as §2

[15] = tested on: P. aeruginosa VR-143/97 (VIM-1); settings: MHB, 5 × 10^5 CFU/mL, 18 h, 35 °C, triplicate
Procedure: as §2

[16] = tested on: S. aureus ATCC 43300 (MRSA); settings: MHB, 5 × 10^5 CFU/mL, 18 h, 35 °C, triplicate
Procedure: as §2

[17] = tested on: blood agar plate (Columbia CNA Agar); assay: Hemolysis on blood agar plate; settings: 50 μg peptide (2 μL of 25 mg/mL in DMSO) spotted on blood agar, 35 ± 2 °C, 24 h, visual, triplicate
Procedure: Hemolysis zones were visually determined and measured. […] For two additional peptides (6 and 15), only a small hemolysis zone (diameter 4–5 mm) was visible, as compared to that of the positive control (Triton X-100, 13 mm).
Briefly, 2 μL of each peptide solution in DMSO (25 mg/mL), corresponding to 50 μg, was spotted on the surface of a blood agar plate (Columbia CNA Agar, Becton Dickinson Italia S.p.A., Florence, Italy). The plate was then incubated at 35 ± 2 °C for 24 h and visually inspected for the presence of hemolysis zones (see Figure S13, Supplementary Material). The experiment was performed in triplicate. Table 2 reports the average value of the diameter of hemolysis zones measured in each individual experiment. Triton X-100 was used as a positive control (diameter of the hemolysis zone: 13 mm), while DMSO was used as a negative control.
Figure S13. Implementation of the hemolysis test as described in Bechlars et al.. After spotting
2 µL (50 µg) of each compound at a random location on the blood agar plate and incubation at 35 ±
2 °C for 24 h, the plates were manually inspected for the presence of hemolysis zones. Triton X-100
and DMSO were used as the positive and negative controls, respectively. Results were interpreted
(1 picture or pasted object on this page, not shown here)

[18] = tested on: Pseudomonas aeruginosa ATCC 27853; settings: MHB, 5 × 10^5 CFU/mL, 18 h, 35 °C, triplicate
Procedure, shortened: as §1

Compound	MBC Aba [1]	MIC Aba [1]	MIC against A. baumannii, in molar units [1]	MBC Bsu [2]	MIC Bsu [2]	MBC Efa [3]	MIC Efa [3]	MBC Eco [4]	MIC Eco [4]	MIC Kpn [5]	MIC Sau [6]	MBC Spy [7]	MIC Spy [7]	MBC A. baumannii SI-12 (OXA-23) [9]	MIC A. baumannii SI-12 (OXA-23) [9]	MBC A. baumannii SI-310 (OXA-24) [10]	MIC A. baumannii SI-310 (OXA-24) [10]	MBC A. baumannii SI-648 (OXA-23, OXA-51-like) [11]	MIC A. baumannii SI-648 (OXA-23, OXA-51-like) [11]	MBC P. aeruginosa 101/1477 (IMP-1) [12]	also measured
CCCCCCCC(=O)NC(C)(C)C(=O)N[C@@H](CCCCN)C(=O)N[C@@H](CC(C)C)C(=O)NC(C)(C)C(=O)N[C@@H](CCCCN)C(=O)N[C@@H](CCCCN)C(=O)N[C@@H](CC(C)C)C(=O)NC(C)(C)C(=O)NCC(=O)N[C@H](C(=O)N[C@@H](CC(C)C)C(N)=O)[C@@H](C)CC [Peptide 11, 1-Oct-Aib-Lys-Leu-Aib-Lys-Lys-Leu-Aib-Gly-Ile-Leu-NH2] (Octanoyl-[Aib]KL[Aib]KKL[Aib]GIL-NH2)	2 mg/L (≈ 1.55 µM)	2 mg/L (≈ 1.55 µM)	1.8 to 7.2 µM	16 mg/L (≈ 12.4 µM)	2 mg/L (≈ 1.55 µM)	32 mg/L (≈ 24.8 µM)	4 mg/L (≈ 3.09 µM)	128 mg/L (≈ 99 µM)	16 mg/L (≈ 12.4 µM)	> 128 mg/L	16 mg/L (≈ 12.4 µM)	16 mg/L (≈ 12.4 µM)	4 mg/L (≈ 3.09 µM)	32 mg/L (≈ 24.8 µM)	32 μg/mL and 32/32 μg/mL	4 mg/L (≈ 3.09 µM)	2 mg/L (≈ 1.55 µM)	4 mg/L (≈ 3.09 µM)	2 µg/mL (≈ 1.55 µM)	8 mg/L (≈ 6.19 µM)	lowest MIC ([8]; lowest value over the eight reference strains): 2 mg/L; MIC P. aeruginosa 101/1477 (IMP-1) [12]: 8 mg/L (≈ 6.19 µM); MBC P. aeruginosa 506/99 (VIM-2) [13]: 16 mg/L (≈ 12.4 µM); MIC P. aeruginosa 506/99 (VIM-2) [13]: 8 mg/L (≈ 6.19 µM); MBC P. aeruginosa VA-182/00 (VIM-2) [14]: 32 mg/L (≈ 24.8 µM); MIC P. aeruginosa VA-182/00 (VIM-2) [14]: 8 mg/L (≈ 6.19 µM); MBC P. aeruginosa VR-143/97 (VIM-1) [15]: 8 mg/L (≈ 6.19 µM); MIC P. aeruginosa VR-143/97 (VIM-1) [15]: 8 mg/L (≈ 6.19 µM); MBC S. aureus ATCC 43300 (MRSA) [16]: 2 mg/L (≈ 1.55 µM); MIC S. aureus ATCC 43300 (MRSA) [16]: 2 mg/L (≈ 1.55 µM); Hemolysis (class) [17]: -
1-Oct-Aib-Gly-Leu-Aib-Lys-Lys-Leu-Aib-Lys-Ile-Lol [Peptide 5]	16 mg/L	4 mg/L	1.8 to 7.2 µM	16 mg/L	8 mg/L	8 mg/L	4 mg/L	> 16 mg/L	8 mg/L	16 mg/L	16 mg/L	4 mg/L	4 mg/L	4 mg/L	4 μg/mL and 4/4 μg/mL	4 mg/L	2 mg/L	4 mg/L	4 μg/mL and 4/4 μg/mL	8 mg/L	MBC Kpn [5]: 16 mg/L; MBC Pae [18]: > 16 mg/L; MIC Pae [18]: 8 mg/L; MBC Sau [6]: 16 mg/L; MIC against six of the eight bacterial strains tested ([8]; reference panel): 4 to 8 mg/L; MIC against the other two strains ([8]; reference panel): 16 mg/L; MIC P. aeruginosa 101/1477 (IMP-1) [12]: 8 mg/L; MBC P. aeruginosa 506/99 (VIM-2) [13]: 8 mg/L; MIC P. aeruginosa 506/99 (VIM-2) [13]: 8 mg/L; MBC P. aeruginosa VA-182/00 (VIM-2) [14]: 8 mg/L; MIC P. aeruginosa VA-182/00 (VIM-2) [14]: 8 mg/L; MBC P. aeruginosa VR-143/97 (VIM-1) [15]: 8 mg/L; MIC P. aeruginosa VR-143/97 (VIM-1) [15]: 8 mg/L; MBC S. aureus ATCC 43300 (MRSA) [16]: 2 mg/L; MIC S. aureus ATCC 43300 (MRSA) [16]: 2 mg/L
